Source: article PMC3639963, “A New Class of Small Molecule Inhibitor of BMP Signaling” (PLoS ONE, 2013)
pIC50: −log10 of the molar value. “And” between values parts separate entries of the source, which are not always exact repeats. Equal entries are not always repeated.

What was measured:
[1] = tested on: ALK2; parameters: method as in PMID 19914855; settings: read-out: reported in vitro IC50 (enzymatic assays); cited from earlier work
[2] = tested on: C2C12 cells; settings: cited from earlier work
[3] = biological target: T1, BRAF (Homo sapiens, UniProt P15056); test: Nanosyn kinase profiling; format: biochemical; settings: read-out: Percentage inhibition
T1 construct: purchased Nanosyn (enzymatic panel); SGC in-house recombinant human kinases (DSF panel); Invitrogen (ALK1-6)
Experimental: (§1) Percentage inhibition was determined for each kinase at both 0.1 µM and 1 µM inhibitor concentration (supplemental Table S2).
(§2) Inhibitor selectivity profiling against 200 human kinases at 0.1 and 1 µM inhibitor concentration was performed by Nanosyn (www.nanosyn.com).

[4] = biological target: T2, FLT3 (Homo sapiens, UniProt P36888); test: Nanosyn kinase profiling; format: biochemical; settings: read-out: Percentage inhibition
T2 construct: purchased Nanosyn (enzymatic panel); SGC in-house recombinant human kinases (DSF panel); Invitrogen (ALK1-6)
Experimental: as §1, §2

[5] = biological target: T3, FMS (Homo sapiens, UniProt P07333); test: Nanosyn kinase profiling; format: biochemical; settings: read-out: Percentage inhibition
T3 construct: purchased Nanosyn (enzymatic panel); SGC in-house recombinant human kinases (DSF panel); Invitrogen (ALK1-6)
Experimental: as §1, §2

[6] = biological target: T4, MAP4K4 (Homo sapiens, UniProt O95819); test: Nanosyn kinase profiling; format: biochemical; settings: read-out: Percentage inhibition
T4 construct: purchased Nanosyn (enzymatic panel); SGC in-house recombinant human kinases (DSF panel); Invitrogen (ALK1-6)
Experimental: as §1, §2

[7] = biological target: T5, MINK (Homo sapiens, UniProt Q8N4C8); test: Nanosyn kinase profiling; format: biochemical; settings: read-out: Percentage inhibition
T5 construct: purchased Nanosyn (enzymatic panel); SGC in-house recombinant human kinases (DSF panel); Invitrogen (ALK1-6)
Experimental: as §1, §2

[8] = biological target: T6, ALK1 (Homo sapiens, UniProt P37023); test: In vitro kinase assay ([γ-32P]ATP); format: biochemical; settings: at the Km value of ATP; triplicate
T6 construct: purchased Nanosyn (enzymatic panel); SGC in-house recombinant human kinases (DSF panel); Invitrogen (ALK1-6)
Experimental: (§3) Inhibitors were added at concentrations between 0 and 10 µM in kinase reaction buffer and tested in triplicate.

[9] = biological target: T7, ALK3 (Homo sapiens, UniProt P36894); test: In vitro kinase assay ([γ-32P]ATP); format: biochemical; settings: at the Km value of ATP; triplicate
T7 construct: purchased Nanosyn (enzymatic panel); SGC in-house recombinant human kinases (DSF panel); Invitrogen (ALK1-6)
Experimental: as §3

[10] = biological target: T8, ALK4 (Homo sapiens, UniProt P36896); test: In vitro kinase assay ([γ-32P]ATP); format: biochemical; settings: at the Km value of ATP; triplicate
T8 construct: purchased Invitrogen
T8 sequence (P36896 24-505): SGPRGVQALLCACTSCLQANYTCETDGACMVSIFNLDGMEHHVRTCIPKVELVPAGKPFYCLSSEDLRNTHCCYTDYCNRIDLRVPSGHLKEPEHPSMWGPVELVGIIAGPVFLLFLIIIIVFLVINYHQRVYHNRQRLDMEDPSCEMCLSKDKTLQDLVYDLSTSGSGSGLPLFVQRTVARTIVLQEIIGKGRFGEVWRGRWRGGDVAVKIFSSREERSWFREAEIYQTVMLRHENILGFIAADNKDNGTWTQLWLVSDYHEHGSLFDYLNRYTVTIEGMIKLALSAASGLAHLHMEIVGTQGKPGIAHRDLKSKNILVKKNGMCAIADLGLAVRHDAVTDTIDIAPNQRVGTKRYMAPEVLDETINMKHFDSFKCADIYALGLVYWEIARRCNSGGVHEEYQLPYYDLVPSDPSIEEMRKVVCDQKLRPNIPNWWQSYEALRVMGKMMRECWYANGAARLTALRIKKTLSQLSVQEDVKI
Experimental: as §3

[11] = biological target: T9, ALK6 (Homo sapiens, UniProt O00238); test: In vitro kinase assay ([γ-32P]ATP); format: biochemical; settings: at the Km value of ATP; triplicate
T9 construct: purchased Nanosyn (enzymatic panel); SGC in-house recombinant human kinases (DSF panel); Invitrogen (ALK1-6)
Experimental: as §3

[12] = tested on: Tg(BRE:mRFP) transgenic zebrafish embryos; test: Dorsalization of zebrafish embryos; format: in vivo; settings: treated from the 8- to 16-cell stage, scored at 26 hours
Experimental: The zebrafish colony was maintained as described and embryos were raised at 28.5°C. The Tg(BRE:mRFP) transgenic line (also called BRE-mRFP) has been described previously and expresses mRFP in response to BMP signaling. […] Inhibitor stocks were diluted in DMSO and then further diluted in fish water to give the required inhibitor concentrations. To minimize the amount of inhibitors used, experiments were performed in 24-well plates with approximately 20 embryos per well in a volume of 1 mL. The chemical treatment was applied by immersing 8- to 16-cell stage Tg(BRE:mRFP) embryos (dorsalization experiment) or 12 hours old […]) embryos (ISV experiment) in the fish water supplemented with DMSO or the chemical inhibitors. For the ISV experiment, embryos were manually dechorionated after bud stage before treatment. Embryos were scored and photographed at 26 or 48 hours.

[13] = tested on: mRFP under control of a BMP response element; test: Western blot for mRFP in Tg(BRE:mRFP) embryos; format: in vivo, zebrafish; settings: 26 hours old embryos
Experimental: Inhibitor stocks were diluted in DMSO and then further diluted in fish water to give the required inhibitor concentrations. To minimize the amount of inhibitors used, experiments were performed in 24-well plates with approximately 20 embryos per well in a volume of 1 mL. The chemical treatment was applied by immersing 8- to 16-cell stage Tg(BRE:mRFP) embryos (dorsalization experiment) or 12 hours old Tg(fli1a:eGFP) embryos (ISV experiment) in the fish water supplemented with DMSO or the chemical inhibitors. For the ISV experiment, embryos were manually dechorionated after bud stage before treatment. Embryos were scored and photographed at 26 or 48 hours.
Ten non-dechorionated 26 hours old treated Tg(BRE:mRFP) embryos were snap frozen on dry ice and stored at −80°C. Protein extracts were prepared as described previously for Xenopus embryos. Extraction buffer was freshly prepared. 10 µL per embryo of the protein extract buffer was used to lyse the embryos using a plastic pestle and a pellet pestle motor (Kontes). 40 µg (∼ 1 embryo equivalent) of protein extract was loaded per lane on a 12.5% SDS-PAGE gel. The rabbit anti-mRFP (Invitrogen, R10367) and the goat anti-MCM6 (Santa Cruz, sc-9843) antibodies were used for Western blots.

T2 sequence (P36888 27-993): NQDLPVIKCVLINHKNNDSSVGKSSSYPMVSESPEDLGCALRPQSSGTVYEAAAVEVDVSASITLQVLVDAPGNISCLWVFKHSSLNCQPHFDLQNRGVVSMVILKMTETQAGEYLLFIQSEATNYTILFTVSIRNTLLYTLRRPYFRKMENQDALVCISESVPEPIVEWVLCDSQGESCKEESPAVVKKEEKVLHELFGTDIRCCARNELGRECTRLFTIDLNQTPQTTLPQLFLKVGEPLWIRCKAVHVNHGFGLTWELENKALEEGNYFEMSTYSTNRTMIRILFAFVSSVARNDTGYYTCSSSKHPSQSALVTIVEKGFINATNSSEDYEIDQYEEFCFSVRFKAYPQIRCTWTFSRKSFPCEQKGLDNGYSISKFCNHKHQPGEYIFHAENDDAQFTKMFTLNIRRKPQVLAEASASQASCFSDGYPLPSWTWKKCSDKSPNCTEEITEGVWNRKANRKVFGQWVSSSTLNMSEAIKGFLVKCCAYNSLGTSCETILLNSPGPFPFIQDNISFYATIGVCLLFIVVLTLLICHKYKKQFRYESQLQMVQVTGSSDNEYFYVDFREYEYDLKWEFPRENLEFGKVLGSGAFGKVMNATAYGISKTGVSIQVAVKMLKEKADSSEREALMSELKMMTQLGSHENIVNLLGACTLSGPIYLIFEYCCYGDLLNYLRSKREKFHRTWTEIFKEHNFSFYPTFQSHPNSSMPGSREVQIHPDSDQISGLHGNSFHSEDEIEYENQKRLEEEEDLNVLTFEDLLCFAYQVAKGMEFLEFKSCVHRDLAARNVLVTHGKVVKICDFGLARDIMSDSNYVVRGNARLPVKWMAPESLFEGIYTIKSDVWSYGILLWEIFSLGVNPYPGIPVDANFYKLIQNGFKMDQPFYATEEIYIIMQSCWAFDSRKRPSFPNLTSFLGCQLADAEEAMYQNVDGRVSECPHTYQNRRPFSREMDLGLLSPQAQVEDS
T3 sequence (P07333 20-972): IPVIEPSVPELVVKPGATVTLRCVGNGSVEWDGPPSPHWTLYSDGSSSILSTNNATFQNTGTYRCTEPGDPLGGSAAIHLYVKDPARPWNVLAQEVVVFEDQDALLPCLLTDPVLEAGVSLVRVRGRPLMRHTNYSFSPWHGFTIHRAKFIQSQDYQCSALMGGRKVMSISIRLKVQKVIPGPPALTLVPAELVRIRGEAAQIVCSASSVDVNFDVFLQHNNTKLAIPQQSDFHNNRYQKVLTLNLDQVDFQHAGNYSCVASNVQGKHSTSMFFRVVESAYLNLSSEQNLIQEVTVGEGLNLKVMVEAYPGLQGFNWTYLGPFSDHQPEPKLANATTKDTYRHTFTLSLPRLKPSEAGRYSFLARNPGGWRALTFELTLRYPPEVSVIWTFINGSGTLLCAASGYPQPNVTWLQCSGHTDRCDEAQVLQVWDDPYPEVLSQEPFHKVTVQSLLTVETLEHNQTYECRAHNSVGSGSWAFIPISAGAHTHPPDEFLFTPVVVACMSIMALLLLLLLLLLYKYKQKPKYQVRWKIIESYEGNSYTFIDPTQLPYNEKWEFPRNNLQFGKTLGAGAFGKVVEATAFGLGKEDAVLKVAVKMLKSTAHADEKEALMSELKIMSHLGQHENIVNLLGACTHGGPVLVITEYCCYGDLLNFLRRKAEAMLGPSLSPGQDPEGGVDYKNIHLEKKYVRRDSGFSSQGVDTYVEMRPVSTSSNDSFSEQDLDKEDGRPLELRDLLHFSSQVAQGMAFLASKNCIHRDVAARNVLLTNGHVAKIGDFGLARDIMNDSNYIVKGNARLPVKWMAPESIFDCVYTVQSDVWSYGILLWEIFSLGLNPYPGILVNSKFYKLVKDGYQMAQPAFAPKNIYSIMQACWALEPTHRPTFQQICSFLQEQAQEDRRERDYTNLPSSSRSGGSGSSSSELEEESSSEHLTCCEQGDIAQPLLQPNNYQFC
T6 sequence (P37023 22-503): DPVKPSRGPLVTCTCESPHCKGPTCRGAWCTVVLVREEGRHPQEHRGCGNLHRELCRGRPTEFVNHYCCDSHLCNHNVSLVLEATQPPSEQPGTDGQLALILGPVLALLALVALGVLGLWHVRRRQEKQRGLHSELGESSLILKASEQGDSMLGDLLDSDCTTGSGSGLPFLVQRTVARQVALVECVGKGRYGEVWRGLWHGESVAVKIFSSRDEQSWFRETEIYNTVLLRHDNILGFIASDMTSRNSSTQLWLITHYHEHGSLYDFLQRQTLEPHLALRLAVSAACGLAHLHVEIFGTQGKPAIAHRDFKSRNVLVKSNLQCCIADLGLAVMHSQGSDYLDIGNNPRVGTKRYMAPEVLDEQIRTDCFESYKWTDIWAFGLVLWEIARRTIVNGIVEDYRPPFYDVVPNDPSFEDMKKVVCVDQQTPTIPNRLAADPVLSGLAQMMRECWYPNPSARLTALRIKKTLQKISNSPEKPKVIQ
T5 sequence (Q8N4C8 whole entry): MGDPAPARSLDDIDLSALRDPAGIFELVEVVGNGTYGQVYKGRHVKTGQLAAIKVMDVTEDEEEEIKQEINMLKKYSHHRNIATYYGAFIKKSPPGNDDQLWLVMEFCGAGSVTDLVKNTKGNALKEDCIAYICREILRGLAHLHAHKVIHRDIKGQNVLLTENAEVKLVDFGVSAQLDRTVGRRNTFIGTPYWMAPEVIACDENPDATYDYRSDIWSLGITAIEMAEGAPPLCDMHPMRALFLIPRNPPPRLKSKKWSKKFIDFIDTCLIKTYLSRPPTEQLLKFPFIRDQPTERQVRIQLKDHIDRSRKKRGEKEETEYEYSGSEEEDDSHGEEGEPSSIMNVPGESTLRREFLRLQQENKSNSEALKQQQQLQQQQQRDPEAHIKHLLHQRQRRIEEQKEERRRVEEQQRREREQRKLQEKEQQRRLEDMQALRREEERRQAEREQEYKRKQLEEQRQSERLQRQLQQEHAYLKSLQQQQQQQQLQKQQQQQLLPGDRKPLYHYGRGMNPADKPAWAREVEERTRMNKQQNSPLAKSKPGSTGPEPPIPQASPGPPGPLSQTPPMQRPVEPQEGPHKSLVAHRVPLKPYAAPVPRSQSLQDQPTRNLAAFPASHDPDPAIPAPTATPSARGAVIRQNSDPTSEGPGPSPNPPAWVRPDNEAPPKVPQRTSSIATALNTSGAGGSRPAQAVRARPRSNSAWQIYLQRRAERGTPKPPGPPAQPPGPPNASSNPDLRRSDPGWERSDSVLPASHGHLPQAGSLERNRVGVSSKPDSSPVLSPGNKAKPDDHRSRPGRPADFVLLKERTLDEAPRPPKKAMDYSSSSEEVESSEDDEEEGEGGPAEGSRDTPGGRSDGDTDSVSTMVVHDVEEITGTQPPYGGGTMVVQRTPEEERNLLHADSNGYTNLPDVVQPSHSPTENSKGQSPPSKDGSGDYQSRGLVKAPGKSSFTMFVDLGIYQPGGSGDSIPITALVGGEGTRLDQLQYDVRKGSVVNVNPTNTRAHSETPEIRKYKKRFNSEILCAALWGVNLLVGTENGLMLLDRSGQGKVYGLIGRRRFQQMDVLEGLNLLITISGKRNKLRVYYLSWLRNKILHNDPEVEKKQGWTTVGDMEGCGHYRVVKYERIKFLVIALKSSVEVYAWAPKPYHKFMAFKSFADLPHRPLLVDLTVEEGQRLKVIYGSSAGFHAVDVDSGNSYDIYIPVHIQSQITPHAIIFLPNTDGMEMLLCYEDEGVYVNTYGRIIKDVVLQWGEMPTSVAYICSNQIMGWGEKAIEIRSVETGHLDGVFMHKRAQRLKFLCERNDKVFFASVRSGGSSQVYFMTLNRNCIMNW
T4 sequence (O95819 whole entry): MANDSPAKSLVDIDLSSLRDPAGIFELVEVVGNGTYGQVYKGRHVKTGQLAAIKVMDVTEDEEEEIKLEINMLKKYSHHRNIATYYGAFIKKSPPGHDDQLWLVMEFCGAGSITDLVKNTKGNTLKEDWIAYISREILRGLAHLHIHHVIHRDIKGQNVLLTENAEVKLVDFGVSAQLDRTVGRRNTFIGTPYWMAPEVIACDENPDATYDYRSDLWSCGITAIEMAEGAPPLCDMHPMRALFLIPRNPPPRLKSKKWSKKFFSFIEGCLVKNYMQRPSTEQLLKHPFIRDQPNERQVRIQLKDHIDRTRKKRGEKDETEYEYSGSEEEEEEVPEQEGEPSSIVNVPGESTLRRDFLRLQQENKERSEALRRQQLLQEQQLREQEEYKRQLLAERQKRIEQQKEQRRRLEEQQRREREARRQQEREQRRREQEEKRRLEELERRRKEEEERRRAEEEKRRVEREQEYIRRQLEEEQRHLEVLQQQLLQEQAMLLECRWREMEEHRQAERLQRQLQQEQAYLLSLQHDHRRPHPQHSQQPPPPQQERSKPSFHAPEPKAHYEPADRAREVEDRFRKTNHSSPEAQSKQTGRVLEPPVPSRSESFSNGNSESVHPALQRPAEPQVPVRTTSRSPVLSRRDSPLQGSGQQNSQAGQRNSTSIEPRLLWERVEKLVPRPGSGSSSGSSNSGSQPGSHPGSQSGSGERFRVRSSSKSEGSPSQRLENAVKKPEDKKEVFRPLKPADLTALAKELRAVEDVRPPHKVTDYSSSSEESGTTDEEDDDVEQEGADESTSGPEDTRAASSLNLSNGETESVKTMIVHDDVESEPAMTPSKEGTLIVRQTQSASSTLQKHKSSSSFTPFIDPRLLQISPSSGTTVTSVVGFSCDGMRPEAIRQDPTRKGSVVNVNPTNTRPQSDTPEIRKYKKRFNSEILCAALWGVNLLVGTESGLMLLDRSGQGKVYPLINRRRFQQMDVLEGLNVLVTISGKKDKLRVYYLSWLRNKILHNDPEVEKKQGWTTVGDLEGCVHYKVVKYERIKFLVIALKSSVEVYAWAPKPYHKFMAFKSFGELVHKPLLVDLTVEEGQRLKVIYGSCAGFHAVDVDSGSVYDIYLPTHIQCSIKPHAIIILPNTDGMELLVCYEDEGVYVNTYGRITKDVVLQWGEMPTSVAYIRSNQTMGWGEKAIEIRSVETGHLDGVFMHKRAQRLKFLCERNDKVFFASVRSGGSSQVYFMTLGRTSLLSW

Compound | pIC50 [1] | pIC50 [2] | inhibition at 0.1 µM ([3]; 0.1 µM inhibitor) [%] | inhibition at 1 µM ([3]; 1 µM inhibitor) [%] | inhibition at 0.1 µM ([4]; 0.1 µM inhibitor) [%] | inhibition at 1 µM ([4]; 1 µM inhibitor) [%] | inhibition at 0.1 µM ([5]; 0.1 µM inhibitor) [%] | inhibition at 1 µM ([5]; 1 µM inhibitor) [%] | inhibition at 0.1 µM ([6]; 0.1 µM inhibitor) [%] | inhibition at 1 µM ([6]; 1 µM inhibitor) [%] | inhibition at 0.1 µM ([7]; 0.1 µM inhibitor) [%] | inhibition at 1 µM ([7]; 1 µM inhibitor) [%] | pIC50 [8] | pIC50 [9] | pIC50 [10] | pIC50 [11] | concentration giving severely dorsalized phenotype [12] [µM] | concentration at which loss of mRFP protein was evident [13] [µM]
c1cc(-c2cnn3cc(-c4ccc(OCCN5CCCCC5)cc4)cnc23)ccn1 [Dorsomorphin] | 7.30 | ~6.30 | – | – | – | – | – | – | – | – | – | – | – | – | – | – | – | –
COc1cc(-c2cc(-c3cccc(O)c3)cnc2N)cc(OC)c1OC [K02288, 3-[6-amino-5-(3,4,5-trimethoxy-phenyl)-pyridin-3-yl]-phenol] | – | – | 0 | 12 | -2 | 0.4 | 6.1 | 33 | 46 | 89 | 36 | 86 | 8.74 and 8.70 to 9.00 | 7.46 | 6.52 | 8.19 | 8 to 10 | 8 to 10
